Source: paper PMC5838106, “Cathelicidin promotes inflammation by enabling binding of self-RNA to cell surface scavenger receptors” (Scientific Reports, 2018)
Where no end group is shown, it is not given here.

How the values were obtained:
NHEKs = test: Immunoblotting of TBK1-AKT-IRF3 pathway and p38 MAPK phosphorylation; assay type: cell-based, human; details: peptide 2.5 μM 10 minutes, then U1 RNA 2.5 μg/mL 30 minutes or 2 hours
From the text: Figure 2 Structure and cell binding of cathelicidin and dsRNA. (a) Structures of LL37, LL34, and LL34(I20P) bound to dsRNA were solved using SAXS. SAXS data is plotted as the scattering intensity I(q) vs. the momentum transfer vector q. LL34 (blue) and LL34(I20P) (green) condense dsRNA into square lattices with first peak positions of q10 = 0.167 Å^−1 and 0.170 Å^−1, respectively. Higher order Bragg reflections due to scattering of the square lattice of LL34 and LL34(I20P) are labeled for both complexes. In comparison, LL37 (magenta) condenses dsRNA into a columnar lattice with short-ranged order, with a first peak position of q1 = 0.172 Å^−1. (b) Linear fits of Bragg peak positions indicate that LL34-dsRNA (blue) and LL34(I20P)-dsRNA (green) complexes have inter-dsRNA spacings of 3.76 nm and 3.70 nm, respectively. Each reflection corresponding to the peaks in a for LL34 and LL34(I20P) are labeled. […]
NHEKs were lysed in a denaturing lysis buffer containing 20 mM HEPES pH 7.4, 250 mM NaCl, 2 mM EDTA, and 1% SDS supplemented with completed proteinase inhibitor cocktail as well as 50 mM sodium floride, 5mM N-ethylmaleimide, 100 μM hemin chloride to maximally preserve protein post-translational modifications as described previously. […] Protein concentrations were measured by BCA protein assay kit (Thermofisher). […]

THP1 cells = test: U1 RNA co-association with early endosome (EEA1) in THP1; assay type: cell-based, human; details: PMA-treated THP1, 37 °C, 4 hours
Experimental: NHEKs were grown on 8-well chamber slides (Thermofisher Scientific). After indicated treatments, cells were fixed in 4% paraformaldehyde (PFA) (Thermofisher Scientific) for 10 minutes and blocked with 3% bovine serum albumin, 0.2 M Glycine (Sigma) with or without 1 mg/mL saponin (Sigma) prior to incubating with primary antibodies followed by appropriate 488- or 568-coupled secondary antibodies, or 488-streptavidin conjugate. Nuclei were counterstained with DAPI. All images were taken with an Olympus BX41 microscope (widefield), Zeiss LSM510 confocal microscope, or Nikon A1R Confocal STORM microscope as indicated.
Figure S2. a) PMA-treated THP1 cultured at 37 °C for 4 hours with U1 RNA and cathelicidin peptides. Early endosomal antigen 1 (EEA1) is stained red, U1 RNA is stained green and nuclei were visualized with DAPI (blue). Scale bar represents 10 μm. b) IL-6 mRNA in NHEKs cultured with FPR1 inhibitor Boc-MLF (1 µM) or FPR2 inhibitor WRW4 (1 µM) for 1 hour, treated with LL37 (2.5 µM) and U1 RNA (2.5 µg/mL) for a further 6 hours. (n = 3). c) IL-6 mRNA in NHEKs cultured with G-protein coupled receptor inhibitor pertussis toxin (0.5 µg/mL) for 1 hour, treated with LL37 (2.5 µM) and U1 RNA (2.5 µg/mL) for a further 6 hours. (n = 3). […]

| Substance | phosphorylation in the TBK1-AKT-IRF3 pathway and p38 MAPK (NHEKs) | co-association of U1 RNA with the early endosome (THP1 cells) |
| --- | --- | --- |
| LL37 | increased | induced partial co-association with the early endosome |
| LLGDFFRKSKEKIGKEFKRIVQRIKDFLRNLVPR [LL34] | increased | induced partial co-association with the early endosome |
